≈ marks a conversion by molar mass, not a printed value.
Legend:
[1] = Solubility enhancement screening in 5% (w/w) excipient solutions in phosphate buffered saline, HPLC of supernatant; format: physicochemical; conditions: aqueous buffer, thermodynamic from solid, 37° C., n = 3, read-out: Zotarolimus Solubility
Experimental: Emulsifier candidates can be screened by measuring the degree to which they can enhance the solubility of the therapeutic agent. One way to accomplish this is to make 5% (w/w) solutions of the emulsifiers of interest in a phosphate buffered saline solution. An excess amount of drug is added to the solution and incubated with stirring at 37° C. After centrifugation to precipitate all solids, the supernatant is assayed by HPLC for the drug concentration.

physchem = conditions: water
From the text: Using the Stokes-Einstein equation as a simple model, diffusion coefficients are approximately proportional to the molecular weight of a species raised to the −⅓ power. Thus, individual molecules or micelles, which are low in molecular weight, tend to diffuse much faster than microspheres or nanoparticles, which are much higher in molecular weight.

## CO[C@H]1C[C@@H]2CC[C@@H](C)[C@@](O)(O2)C(=O)C(=O)N2CCCC[C@H]2C(=O)O[C@H]([C@H](C)C[C@@H]2CC[C@H](n3cnnn3)[C@H](OC)C2)CC(=O)[C@H](C)/C=C(\C)[C@@H](O)[C@@H](OC)C(=O)[C@H](C)C[C@H](C)/C=C/C=C/C=C/1C [Zotarolimus, zotarolimus]
[1]
  solubility: 0.53 µg/mL
physchem
  solubility: 0.5 µg/mL (≈ 0.517 µM)

Source: US20110144578A1, “HYDROPHOBIC THERAPUEUTIC AGENT AND SOLID EMULSIFIER COATING FOR DRUG COATED BALLOON” (priority 2009, published 2011)
